# US6632981B1, “DNA sequences encoding polypeptides having beta-1,3-glucanase activity” (Novartis Finance Corporation, priority 1988, dated 2003)
# Columns and labels:
# [1] = test system: cucumber chitinase protein; test: Cucumber chitinase ELISA in transgenic plants carrying cucumber chitinase genomic constructs after leaf treatment; type: in vivo, tobacco; set-up: key: —: Indicates that sample has no detectable level of chitinase protein
# Procedure: Once the transgenic plants are transferred to soil, they are grown 4-5 weeks before treatment. The following solutions are applied to the leaves with sterile paintbrushes:
# 3. Methyl benzo-1,2,3-thiadiazole-7-carboxylate. The solution is made by resuspending a wettable powder containing a formulation of the chemical with 25% active ingredient in sterile water at a concentration of 1 mg/ml.
# 4. Methyl 2,6-dichloroisonicotinate, prepared as above. Alternatively, 30 ul of 10 mM sodium phosphate buffer, pH 7.0, or 30 ul of the same buffer containing tobacco mosaic virus (50-100 pfu/30 ul) is applied to the leaves which have been sprinkled with carborundum. The buffers are distributed over the whole treated leaf by gentle rubbing.
# The plants are allowed to continue to grow for seven days. The treated leaves are then harvested, frozen in liquid nitrogen and stored at −80° C. until they are assayed.
# Frozen leaf tissue is ground in a mortar with a pestle in the presence of liquid nitrogen to produce a fine powder. 0.33 g of each tissue sample is added to 1 ml extraction buffer (50 mM Tris-HCl, pH 8.5, 0.2M 2-mercaptoethanol, 2 mM phenyl methyl sulfonyl fluoride, 2 mM benzamidine, 10 mM epsilon-aminocaproic acid, 1 mM leueptine) and the sample homogenized for one minute with an Ultra Turrax Mixer (shaft #S25N-8G, Tekmar Co. Cincinnati, Ohio). The samples are then centrifuged at 48,000×g for fifteen minutes at 4° C. and the supernatant removed from the pelleted material. The extracts are diluted at least 1:50 in ELISA diluent (101 mM sodium phosphate, pH 7.4, 140 mM sodium chloride, 0.05% Tween 20, 0.02% sodium azide, 1% BSA).
# A microtiter plate is coated with monoclonal antibody specific to the cucumber chitinase protein at 2 ug/ml in borate-buffered saline (100 mM boric acid, 25mM sodium borate, 75 mM sodium chloride; pH 8.5) using 50 ul per well. The plate is incubated overnight at 4° C. The plate is washed with ELISA wash buffer (10 mM Tris-HCl, pH 8.0, 0.05% Tween 20, 3 mM sodium azide) and BSA blocking solution (10 mM sodium phosphate, pH 7.4, 140 mM sodium chloride, 0.02% sodium azide, 1% BSA) is added to completely cover each well. Incubation is for at least 30 minutes at room temperature.
# The microtiter plate is washed with ELISA wash buffer and 50 ul of extract is added to the appropriate well. 50 ul of each of 10 chitinase protein standards (ranging from 0 ng/ml to 31.64 ng/ml) was also added to the appropriate well and the plate is incubated for two hours at 4° C. The plate is washed with ELISA wash buffer and 50 ul of rabbit polyclonal antibody to the cucumber chitainase protein (diluted 1:15,000 in ELISA diluent) is added to the well and incubated for one hour at 37° C. After washing with ELISA wash buffer, 50 ul of goat anti-rabbit conjugated to alkaline phosphatase (1:500 in ELISA diluent) is added to each well and incubated at 37° C. for one hour. The plate is then washed and 50 ul alkaline phosphatase substrate solution (0.6 mg/ml p-nitrophenyl phosphate in 0.5 mM magnesium chloride and 10% diethanolamine) is added to each well. After a 30 minute incubation at room temperature, 50 ul of 3N sodium hydroxide is added to each well to stop the reaction.
# The plate is read at 405 nm and 492 nm on an HP Genenchem ELISA plate reader. The output values are expressed as A(405 nm)-A(492 nm)−0.092 to allow for correction of p-nitrophenyl phosphate as substrate. The chitinase standards for each plate are graphed logarithmically. The amount of chitinase protein in each sample is determined from the standard curve. If the amount of chitinase in any sample is close to the upper limit of the curve, the sample is assayed again at a greater dilution. Final results are expressed in the table below in ug chitinase per gram tissue.
# [2] = test system: chemically regulatable chimeric genes coding for GUS, AHAS or BT; test: Primer extension assay for mRNA of chemically regulatable chimeric genes; type: in vivo; settings: callus or regenerated plant material from transgenic plants; level proportional to amount of regulator applied
# Procedure: 50 g of total RNA is lyophilized in a 500 l Eppendorf tube. The RNA is resuspended in 30 l of radiolabeled probe solution and heated to 70′ C. for 10 minutes. The tube is slowly cooled to 37° C. and allowed to incubate overnight. Without removing the tube from the 37° C. water bath, 2 l of 10×reverse-transcriptase buffer (500 mM Tris-HCl, pH 7.5, 400 mM KCl, 30 mM MgCl2), 1 l 5 mg/ml bovine serum albumin, 5 l 100 mM dithiothreitol, 5 l 10×dNTPs (10 mM of each dNTP in H2O), 3 l H 20, 2 l RNasin (80 units), and 2 l reverse transcriptase (400 units) are added and the reaction is incubated at 37° C. for 30 minutes. To stop the reaction, 5 l of 3 M sodium acetate, pH 5, and 150 l absolute ethanol are added. The tube is left at −20° C. for 30 minutes, the precipitate is collected by centrifugation, washed with 80% ethanol and allowed to air-dry. The precipitate is resuspended in 10-20 l of loading dye (90% formamide, 0.05% bromophenol blue, 0.05% xylene cyanol, 1 mM EDTA) and the extension products are separated on a 6% sequencing gel (Maniatis, T. et al., supra). Extension products are visualized by autoradiography.
# Plant materials induced and harvested as in Examples 140 to 142 are assayed for the induction of mRNA species by the isolation of RNA and the primer extension assay as described in Example 6.
# The level of mRNA is proportional to the amount of regulator applied.
smiles,measurement,setting,value
"COC(=O)c1cc(Cl)nc(Cl)c1 [MDCINA, Methyl 2,6-dichloroisonicotinate]",ELISA ASSAY RESULTS (ug chitinase/g tissue),"[1]; line Bam-1 (2001/BamChit), leaves harvested after seven days, water 0.066, buffer —",—
same,ELISA ASSAY RESULTS (ug chitinase/g tissue),"[1]; line Bam-3 (2001/BamChit), seven days, water —, buffer —",—
same,ELISA ASSAY RESULTS (ug chitinase/g tissue),"[1]; line Bam-4 (2001/BamChit), seven days, water —, buffer —",—
same,ELISA ASSAY RESULTS (ug chitinase/g tissue),"[1]; line Bam-8 (2001/BamChit), seven days, water —, buffer —",—
same,ELISA ASSAY RESULTS (ug chitinase/g tissue),"[1]; line Bam-9 (2001/BamChit), seven days, water —, buffer —",—
same,ELISA ASSAY RESULTS (ug chitinase/g tissue),"[1]; line Bam-10 (2001/BamChit), seven days, water 0.059, buffer 0.084",2.378 ug chitinase/g tissue
same,ELISA ASSAY RESULTS (ug chitinase/g tissue),"[1]; line Bam-12 (2001/BamChit), seven days, water —, buffer —",—
same,ELISA ASSAY RESULTS (ug chitinase/g tissue),"[1]; line Bam-14 (2001/BamChit), seven days, water —, buffer —",—
same,ELISA ASSAY RESULTS (ug chitinase/g tissue),"[1]; line Bam-15 (2001/BamChit), seven days, water —, buffer —",—
same,ELISA ASSAY RESULTS (ug chitinase/g tissue),"[1]; line Bam-16 (2001/BamChit), seven days, water —, buffer —",0.864 ug chitinase/g tissue
same,ELISA ASSAY RESULTS (ug chitinase/g tissue),"[1]; line Bam-17 (2001/BamChit), seven days, water —, buffer —",—
same,ELISA ASSAY RESULTS (ug chitinase/g tissue),"[1]; line Bam-19 (2001/BamChit), seven days, water —, buffer —",—
same,ELISA ASSAY RESULTS (ug chitinase/g tissue),"[1]; line Bam-21 (2001/BamChit), seven days, water —, buffer —",—
same,ELISA ASSAY RESULTS (ug chitinase/g tissue),"[1]; line Bam-23 (2001/BamChit), seven days, water —, buffer —",—
same,ELISA ASSAY RESULTS (ug chitinase/g tissue),"[1]; line Bam-24 (2001/BamChit), seven days, water —, buffer —",—
same,ELISA ASSAY RESULTS (ug chitinase/g tissue),"[1]; line Bam-25 (2001/BamChit), seven days, water —, buffer —",—
same,ELISA ASSAY RESULTS (ug chitinase/g tissue),"[1]; line Bam-26 (2001/BamChit), seven days, water —, buffer —",—
same,ELISA ASSAY RESULTS (ug chitinase/g tissue),"[1]; line Nco-2 (2001/NcoChit), seven days, water —, buffer —",—
same,ELISA ASSAY RESULTS (ug chitinase/g tissue),"[1]; line Nco-3 (2001/NcoChit), seven days, water —, buffer —",—
same,ELISA ASSAY RESULTS (ug chitinase/g tissue),"[1]; line Nco-5 (2001/NcoChit), seven days, water —, buffer —",—
same,ELISA ASSAY RESULTS (ug chitinase/g tissue),"[1]; line Nco-8 (2001/NcoChit), seven days, water —, buffer —",—
same,ELISA ASSAY RESULTS (ug chitinase/g tissue),"[1]; line Nco-9 (2001/NcoChit), seven days, water —, buffer —",—
same,ELISA ASSAY RESULTS (ug chitinase/g tissue),"[1]; line Nco-10 (2001/NcoChit), seven days, water —, buffer —",—
same,ELISA ASSAY RESULTS (ug chitinase/g tissue),"[1]; line Nco-11 (2001/NcoChit), seven days, water —, buffer —",—
same,ELISA ASSAY RESULTS (ug chitinase/g tissue),"[1]; line Nco-15 (2001/NcoChit), seven days, water —, buffer —",—
same,ELISA ASSAY RESULTS (ug chitinase/g tissue),"[1]; line Nco-16 (2001/NcoChit), seven days, water 0.555, buffer 0.566",0.286 ug chitinase/g tissue
same,ELISA ASSAY RESULTS (ug chitinase/g tissue),"[1]; line Nco-17 (2001/NcoChit), seven days, water —, buffer —",—
same,ELISA ASSAY RESULTS (ug chitinase/g tissue),"[1]; line Sal-2 (2001/SalChit), seven days, water —, buffer —",—
same,ELISA ASSAY RESULTS (ug chitinase/g tissue),"[1]; line Sal-3 (2001/SalChit), seven days, water —, buffer —",0.047 ug chitinase/g tissue
same,ELISA ASSAY RESULTS (ug chitinase/g tissue),"[1]; line Sal-4 (2001/SalChit), seven days, water —, buffer —",—
same,ELISA ASSAY RESULTS (ug chitinase/g tissue),"[1]; line Sal-5 (2001/SalChit), seven days, water —, buffer —",—
same,ELISA ASSAY RESULTS (ug chitinase/g tissue),"[1]; line Sal-7 (2001/SalChit), seven days, water —, buffer —",—
same,ELISA ASSAY RESULTS (ug chitinase/g tissue),"[1]; line Sal-8 (2001/SalChit), seven days, water —, buffer —",—
same,ELISA ASSAY RESULTS (ug chitinase/g tissue),"[1]; line Sal-9 (2001/SalChit), seven days, water —, buffer —",—
same,ELISA ASSAY RESULTS (ug chitinase/g tissue),"[1]; line Sal-11 (2001/SalChit), seven days, water —, buffer —",—
same,ELISA ASSAY RESULTS (ug chitinase/g tissue),"[1]; line Sal-12 (2001/SalChit), seven days, water —, buffer —",—
same,ELISA ASSAY RESULTS (ug chitinase/g tissue),"[1]; line Sal-13 (2001/SalChit), seven days, water —, buffer —",—
same,ELISA ASSAY RESULTS (ug chitinase/g tissue),"[1]; line Sal-14 (2001/SalChit), seven days, water —, buffer —",—
same,ELISA ASSAY RESULTS (ug chitinase/g tissue),"[1]; line Sal-15 (2001/SalChit), seven days, water —, buffer —",—
same,"level of mRNA of the chimeric gene (GUS, AHAS or BT primer), primer extension assay",[2],elevated levels of mRNA
